For 31 compounds, IC50 results are on record in patent publication US20140058103A1, “Inhibitors of PI3K-Delta and Methods of Their Use and Manufacture” (Exelixis, Inc., priority 2010, published 2014).

Sequence of PI3K delta (O00329 whole entry): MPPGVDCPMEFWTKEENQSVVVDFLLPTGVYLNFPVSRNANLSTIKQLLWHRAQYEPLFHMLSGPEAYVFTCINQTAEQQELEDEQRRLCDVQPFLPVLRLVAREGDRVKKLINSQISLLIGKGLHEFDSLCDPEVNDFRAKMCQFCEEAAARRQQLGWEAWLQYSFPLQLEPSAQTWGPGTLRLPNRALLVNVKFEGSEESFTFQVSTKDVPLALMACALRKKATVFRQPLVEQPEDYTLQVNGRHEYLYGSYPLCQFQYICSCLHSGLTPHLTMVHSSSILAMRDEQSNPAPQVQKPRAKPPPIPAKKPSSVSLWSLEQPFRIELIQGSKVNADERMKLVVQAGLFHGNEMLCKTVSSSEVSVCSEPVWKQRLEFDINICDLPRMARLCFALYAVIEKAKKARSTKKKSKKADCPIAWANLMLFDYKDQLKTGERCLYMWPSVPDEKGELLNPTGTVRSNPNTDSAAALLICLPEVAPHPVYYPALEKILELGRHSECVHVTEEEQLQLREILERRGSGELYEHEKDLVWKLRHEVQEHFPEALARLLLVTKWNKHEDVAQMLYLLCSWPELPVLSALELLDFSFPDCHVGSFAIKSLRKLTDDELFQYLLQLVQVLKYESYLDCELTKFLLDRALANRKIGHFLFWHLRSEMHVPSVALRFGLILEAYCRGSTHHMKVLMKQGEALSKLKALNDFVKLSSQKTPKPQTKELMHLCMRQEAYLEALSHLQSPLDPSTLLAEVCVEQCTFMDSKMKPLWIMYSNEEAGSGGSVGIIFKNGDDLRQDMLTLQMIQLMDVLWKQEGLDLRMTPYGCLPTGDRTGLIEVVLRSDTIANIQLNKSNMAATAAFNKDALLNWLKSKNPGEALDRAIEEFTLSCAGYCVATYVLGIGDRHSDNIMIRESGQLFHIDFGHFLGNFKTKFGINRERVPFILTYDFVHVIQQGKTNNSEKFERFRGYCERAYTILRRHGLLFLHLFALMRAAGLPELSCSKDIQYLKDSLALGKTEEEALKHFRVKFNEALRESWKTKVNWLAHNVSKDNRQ
Sequence of PI3K delta (P27986 whole entry partner): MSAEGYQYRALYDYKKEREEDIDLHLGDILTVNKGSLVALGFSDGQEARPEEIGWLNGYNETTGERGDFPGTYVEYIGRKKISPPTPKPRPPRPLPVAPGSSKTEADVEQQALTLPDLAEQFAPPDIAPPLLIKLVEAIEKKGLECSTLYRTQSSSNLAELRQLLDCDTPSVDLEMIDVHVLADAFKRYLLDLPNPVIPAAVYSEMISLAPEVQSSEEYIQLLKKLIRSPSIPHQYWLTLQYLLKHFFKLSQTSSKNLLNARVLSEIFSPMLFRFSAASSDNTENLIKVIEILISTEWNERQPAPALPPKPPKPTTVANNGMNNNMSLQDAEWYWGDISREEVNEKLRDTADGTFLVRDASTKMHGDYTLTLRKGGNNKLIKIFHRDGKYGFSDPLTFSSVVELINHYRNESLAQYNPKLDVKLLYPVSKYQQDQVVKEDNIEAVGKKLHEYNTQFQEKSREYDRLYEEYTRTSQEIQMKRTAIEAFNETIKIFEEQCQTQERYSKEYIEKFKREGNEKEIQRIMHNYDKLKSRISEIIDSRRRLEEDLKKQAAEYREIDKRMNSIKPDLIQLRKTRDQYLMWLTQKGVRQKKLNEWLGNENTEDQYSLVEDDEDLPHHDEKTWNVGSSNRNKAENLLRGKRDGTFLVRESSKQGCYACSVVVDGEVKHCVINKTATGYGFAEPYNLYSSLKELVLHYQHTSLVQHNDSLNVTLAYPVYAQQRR

The test concerns the target PI3K delta (Homo sapiens, UniProt O00329). Briefly: Luciferase-coupled chemiluminescence kinase assay (ATP consumption, KinaseGlo). The format is biochemical. In a few lines: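 ATP consumption measured by KinaseGlo luciferase chemiluminescence after a 2 h reaction at ambient temperature, with ATP at or below the kinase KM. Ten inhibitor concentrations per curve; IC50 from four-parameter nonlinear regression.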
On the technique in general: Kinase-Glo reads ATP consumption through a luciferase reaction.
`Cn1cc(-c2nc3c(N4CCN(c5cccc(OCC(=O)NC6CCCC6)c5)CC4)ncnc3n2C)cn1` [Compound 356, N-cyclopentyl-2-[(3-{4-[9-methyl-8-(1-methyl-1H-pyrazol-4-yl)-9H-purin-6-yl]piperazin-1-yl}phenyl)oxy]acetamide]: the IC50 (usually the concentration at which inhibition is half-maximal) was 500 to 1500 nM.
As for `Cn1c(C(=O)N2CCC(O)C2)nc2c(N3CCC(n4c(=O)[nH]c5ccccc54)CC3)ncnc21` (stereo not shown) [Compound 73, 1-(1-[8-[(3-hydroxypyrrolidin-1-yl)carbonyl]-9-methyl-9H-purin-6-yl]piperidin-4-yl)-1,3-dihydro-2H-benzimidazol-2-one], the figure is 500 to 1500 nM; as for `Cc1ccc(CCNC(=O)c2nc3c(N4CCC(n5c(=O)[nH]c6ccccc65)CC4)ncnc3n2C)cc1` [Compound 64, 9-methyl-N-[2-(4-methylphenyl)ethyl]-6-[4-(2-oxo-2,3-dihydro-1H-benzimidazol-1-yl)piperidin-1-yl]-9H-purine-8-carboxamide], 500 to 1500 nM; as for `Cc1cccc(Cl)c1S(=O)(=O)N1CCN(c2ncnc3c2nc(-c2cnn(C)c2)n3C)CC1` [Compound 386, 6-{4-[(2-chloro-6-methylphenyl)sulfonyl]piperazin-1-yl)-9-methyl-8-(1-methyl-1H-pyrazol-4-yl)-9H-purine], 250 to 500 nM.
`COc1ccc(OC)c(S(=O)(=O)N2CCN(c3ncnc4c3nc(-c3cnn(C)c3)n4C)CC2)c1` [Compound 376, 6-(4-([2,5-bis(methyloxy)phenyl]sulfonyl}-piperazin-1-yl)-9-methyl-8-(1-methyl-1H-pyrazol-4-yl)-9H-purine] registered an IC50 of 250 to 500 nM.
The compound `Cn1c(-c2cncnc2)nc2c(N3CCC(n4c(=O)[nH]c5ccccc54)CC3)ncnc21` [Compound 271, 1-[1-(9-methyl-8-pyrimidin-5-yl-9H-purin-6-yl)piperidin-4-yl]-1,3-dihydro-2H-benzimidazol-2-one] yielded an IC50 of under 50 nM.
As to `CC(C)n1cc(-c2nc3c(N4CCC(n5c(=O)[nH]c6ccccc65)CC4)ncnc3n2C)cn1` [Compound 152, 1-(1-{9-methyl-8-[1-(1-methylethyl)-1H-pyrazol-4-yl]-9H-purin-6-yl}piperidin-4-yl)-1,3-dihydro-2H-benzimidazol-2-one], the IC50 was under 50 nM.
For `CCn1c(C(=O)NCC(C)(C)C)nc2c(N3CCC4(CC3)C(=O)Nc3ccccc34)ncnc21` [Compound 217, N-(2,2-dimethylpropyl)-9-ethyl-6-(2-oxo-1,2-dihydro-1′H-spiro[indole-3,4′-piperidin]-1′-yl)-9H-purine-8-carboxamide], the IC50 was under 50 nM.
In turn, `Cn1c(C(=O)NCCCCO)nc2c(N3CCC(n4c(=O)[nH]c5ccccc54)CC3)ncnc21` [Compound 42, N-(4-hydroxybutyl)-9-methyl-6-[4-(2-oxo-2,3-dihydro-1H-benzimidazol-1-yl)piperidin-1-yl]-9H-purine-8-carboxamide] gave an IC50 of 50 to 250 nM.
Take `CCn1c(-c2ccc(C(F)(F)F)nc2)nc2c(N3CCC(n4c(=O)[nH]c5ncccc54)CC3)ncnc21` [Compound 326, 1-(1-{9-ethyl-8-[6-(trifluoromethyl)pyridin-3-yl]-9H-purin-6-yl}piperidin-4-yl)-1,3-dihydro-2H-imidazo[4,5-b]pyridin-2-one]: the IC50 was under 50 nM.
As to `Cn1c(-c2cnc(N)nc2)nc2c(N3CCC(n4c(=O)[nH]c5ccccc54)CC3)ncnc21` [Compound 305, 1-{1-[8-(2-aminopyrimidin-5-yl)-9-methyl-9H-purin-6-yl]piperidin-4-yl}-1,3-dihydro-2H-benzimidazol-2-one], the IC50 was under 50 nM.
The value for `Cn1c(-c2cn[nH]c2C2CC2)nc2c(N3CCC(n4c(=O)[nH]c5ccccc54)CC3)ncnc21` [Compound 287, 1-{1-[8-(5-cyclopropyl-1H-pyrazol-4-yl)-9-methyl-9H-purin-6-yl]piperidin-4-yl}-1,3-dihydro-2H-benzimidazol-2-one] was under 50 nM; that for `CCn1c(-c2cccnc2)nc2c(N3CCC4(CC3)C(=O)Nc3ccccc34)ncnc21` [Compound 291, 1′-(9-ethyl-8-pyridin-3-yl-9H-purin-6-yl)spiro[indole-3,4′-piperidin]-2(1H)-one] was under 50 nM.
For `Cn1c(-c2ccc(O)nc2)nc2c(N3CCC(n4c(=O)[nH]c5ccccc54)CC3)ncnc21` [Compound 300, 1-{1-[8-(6-hydroxypyridin-3-yl)-9-methyl-9H-purin-6-yl]piperidin-4-yl}-1,3-dihydro-2H-benzimidazol-2-one], the IC50 is 500 to 1500 nM.
The value for `CCn1c(-c2nnc(C(C)C)o2)nc2c(N3CCC(n4c(=O)[nH]c5ccccc54)CC3)ncnc21` [Compound 180, 1-(1-{9-ethyl-8-[5-(1-methylethyl)-1,3,4-oxadiazol-2-yl]-9H-purin-6-yl}piperidin-4-yl)-1,3-dihydro-2H-benzimidazol-2-one] was under 50 nM; that for `Cn1c(-c2cocn2)nc2c(N3CCC(n4c(=O)[nH]c5ccccc54)CC3)ncnc21` [Compound 179, 1-{1-[9-methyl-8-(1,3-oxazol-4-yl)-9H-purin-6-yl]piperidin-4-yl}-1,3-dihydro-2H-benzimidazol-2-one] was 500 to 1500 nM.
The value for `CC(C)CNC(=O)c1nc2c(N3CCC4(CC3)C(=O)Nc3ccccc34)ncnc2n1C1CC1` [Compound 176, 9-cyclopropyl-N-(2-methylpropyl)-6-(2-oxo-1,2-dihydro-1′H-spiro[indole-3,4′-piperidin]-1′-yl)-9H-purine-8-carboxamide] was 50 to 250 nM; that for `Cn1cc(-c2nc3c(N4CC[C@H](c5ccccc5)[C@@H](O)C4)ncnc3n2C)cn1` [Compound 346, (3R,4R)-1-[9-methyl-8-(1-methyl-1H-pyrazol-4-yl)-9H-purin-6-yl]-4-phenylpiperidin-3-ol] was 250 to 500 nM.
As for `COC(=O)[C@@H]1CN(c2ncnc3c2nc(-c2cnn(C)c2)n3C)CC[C@H]1n1c(=O)[nH]c2ccccc21` [Compound 334, methyl (3R,4R)-1-[9-methyl-8-(1-methyl-1H-pyrazol-4-yl)-9H-purin-6-yl]-4-(2-oxo-2,3-dihydro-1H-benzimidazol-1-yl)piperidine-3-carboxylate], the figure is under 50 nM; as for `CC1CC(n2c(=O)[nH]c3ccccc32)CCN1c1ncnc2c1nc(C(=O)NCC1CC1)n2C` (stereo not shown) [Compound 277, N-(cyclopropylmethyl)-9-methyl-6-[2-methyl-4-(2-oxo-2,3-dihydro-1H-benzimidazol-1-yl)piperidin-1-yl]-9H-purine-8-carboxamide], 50 to 250 nM; as for `CCn1c(C(=O)NC(C)C2CC2)nc2c(N3CCC(n4c(=O)[nH]c5ccccc54)CC3)ncnc21` (stereo not shown) [Compound 187, N-(1-cyclopropylethyl)-9-ethyl-6-[4-(2-oxo-2,3-dihydro-1H-benzimidazol-1-yl)piperidin-1-yl]-9H-purine-8-carboxamide], under 50 nM.
For `Cn1cc(-c2nc3c(N4CCN(S(=O)(=O)c5cc(Cl)ccc5Cl)CC4)ncnc3n2C)cn1` [Compound 379, 6-{4-[(2,5-dichlorophenyl)sulfonyl]piperazin-1-yl)-9-methyl-8-(1-methyl-1H-pyrazol-4-yl)-9H-purine], the IC50 lay in the range of 50 to 250 nM.
For the compound `COc1ncc(-c2nc3c(N4CCC(n5c(=O)[nH]c6ccccc65)CC4)ncnc3n2C)cn1` [Compound 310, 1-(1-{9-methyl-8-[2-(methyloxy)pyrimidin-5-yl]-9H-purin-6-yl}piperidin-4-yl)-1,3-dihydro-2H-benzimidazol-2-one], the IC50 is under 50 nM.
For `CCn1c(C(=O)N[C@H]2CC[C@H](O)CC2)nc2c(N3CCC(n4c(=O)[nH]c5ccccc54)CC3)ncnc21` [Compound 154, 9-ethyl-N-(trans-4-hydroxycyclohexyl)-6-[4-(2-oxo-2,3-dihydro-1H-benzimidazol-1-yl)piperidin-1-yl]-9H-purine-8-carboxamide], the IC50 is under 50 nM.
In turn, `Cn1cc(-c2nc3c(N4CCN(S(=O)(=O)c5c(Cl)cccc5Cl)CC4)ncnc3n2C)cn1` [Compound 391, 6-{4-[(2,6-dichlorophenyl)sulfonyl]piperazin-1-yl}-9-methyl-8-(1-methyl-1H-pyrazol-4-yl)-9H-purine] displayed an IC50 of 250 to 500 nM.
As for `CCCC(=O)c1nc2c(N3CCC(n4c(=O)[nH]c5ccccc54)CC3)ncnc2n1C` [Compound 113, 1-[1-(8-butanoyl-9-methyl-9H-purin-6-yl)piperidin-4-yl]-1,3-dihydro-2H-benzimidazol-2-one], the figure is 50 to 250 nM; as for `Cc1c(-c2nc3c(N4CCC(n5c(=O)[nH]c6ncccc65)CC4)ncnc3n2C)cnn1C` [Compound 331, 1-{1-[8-(1,5-dimethyl-1H-pyrazol-4-yl)-9-methyl-9H-purin-6-yl]piperidin-4-yl}-1,3-dihydro-2H-imidazo[4,5-b]pyridin-2-one], under 50 nM.
`Cn1c(C(=O)N2CCC(F)(F)C2)nc2c(N3CCC4(CC3)C(=O)Nc3ccccc34)ncnc21` [Compound 106, 1′-{8-[(3,3-difluoropyrrolidin-1-yl)carbonyl]-9-methyl-9H-purin-6-yl}spiro[indole-3,4′-piperidin]-2(1H)-one] showed an IC50 of 50 to 250 nM.
As for `CC(C)CCn1cc(-c2nc3c(N4CCC(n5c(=O)[nH]c6ccccc65)CC4)ncnc3n2C)cn1` [Compound 233, 1-(1-{9-methyl-8-[1-(3-methylbutyl)-1H-pyrazol-4-yl]-9H-purin-6-yl}piperidin-4-yl)-1,3-dihydro-2H-benzimidazol-2-one], the figure is 50 to 250 nM; as for `CC(C)c1nnc(-c2nc3c(N4CCC(n5c(=O)[nH]c6ccccc65)CC4)ncnc3n2C)o1` [Compound 122, 1-(1-{9-methyl-8-[5-(1-methylethyl)-1,3,4-oxadiazol-2-yl]-9H-purin-6-yl}piperidin-4-yl)-1,3-dihydro-2H-benzimidazol-2-one], under 50 nM; as for `COC(=O)[C@H]1CN(c2ncnc3c2nc(-c2cnn(C)c2)n3C)CC[C@H]1n1c(=O)[nH]c2ccccc21` [Compound 317, methyl (3S,4R)-1-[9-methyl-8-(1-methyl-1H-pyrazol-4-yl)-9H-purin-6-yl]-4-(2-oxo-2,3-dihydro-1H-benzimidazol-1-yl)piperidine-3-carboxylate], 500 to 1500 nM.
